This test deals with SphK1 (Homo sapiens, UniProt Q9NYA1). Briefly: SphK1 384-well flashplate kinase assay. The test is classed as biochemical. The note with it: enzyme assay. On the procedure: The kinase assay is carried out as a 384-well flashplate assay.
Chain of SphK1 (Q9NYA1 whole entry): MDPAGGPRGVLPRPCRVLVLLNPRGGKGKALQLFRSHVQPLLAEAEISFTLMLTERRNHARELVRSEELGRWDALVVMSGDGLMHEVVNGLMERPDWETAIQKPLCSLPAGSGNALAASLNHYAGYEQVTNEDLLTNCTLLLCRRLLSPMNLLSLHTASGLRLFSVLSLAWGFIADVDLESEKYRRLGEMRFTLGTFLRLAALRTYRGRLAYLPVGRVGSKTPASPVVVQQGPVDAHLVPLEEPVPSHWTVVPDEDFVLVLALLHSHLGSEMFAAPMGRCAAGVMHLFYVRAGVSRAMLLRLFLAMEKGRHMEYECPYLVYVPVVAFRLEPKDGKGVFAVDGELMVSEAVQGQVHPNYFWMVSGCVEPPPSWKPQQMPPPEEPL
5 nM modified SphK1, 800 nM omega-biotinyl-D-erythro-sphingosine and 1 μM ATP (with 0.3 μCi of ^33P-ATP/well) are incubated in a total volume of 50 μl (25 mM HEPES, 5 mM MgCl2, 1 mM dithiothreitol, 0.01% of Brij35, 0.1% of BSA (fatty acid-free), pH 7.4) without or with test substance (5-10 concentrations) at 30° C. for 120 min. The reaction is terminated using 25 μl of 200 mM EDTA solution, filtered off with suction at room temperature after 30 min, and the cavities are washed 3 times with 100 μl of 0.9% NaCl solution. The non-specific proportion of the kinase reaction (blank) is determined using 0.5 mM NaCl. Radioactivity is measured in topcount. IC50 values are calculated using RS1.
The compound `CC1(C)CCC(C)(C)c2cc(-c3csc(C4CCN(C[C@@H](O)CO)CC4)n3)ccc21` [Compound A12] gave an IC50 of 1000 to 10000 nM. For `CC1(C)CCC(C)(C)c2cc(-c3csc(C4CCN(CC(=O)N5CCOCC5)CC4)n3)ccc21` [Compound A31] the value was 1000 to 10000 nM; for `CC(CN(C)C)N1CCC(c2nc(-c3ccc4c(c3)C(C)(C)CCC4(C)C)cs2)CC1` (stereo not shown) [Compound A29], 1000 to 10000 nM. For `CC1(C)CCC(C)(C)c2cc(-c3csc(C4CCN(CCCCO)CC4)n3)ccc21` [Compound B2] the value was 10 to 1000 nM; for `CCN(CC)C(=O)CN1CCC(c2nc(-c3ccc4c(c3)C(C)(C)CCC4(C)C)cs2)CC1` [Compound A18], 1000 to 10000 nM; for `CC1(C)CCC(C)(C)c2cc(-c3csc(C4CCN(Cc5ncc[nH]5)CC4)n3)ccc21` [Compound B13], 10 to 1000 nM. Consider `CC(CO)N1CCC(c2nc(-c3ccc4c(c3)C(C)(C)CCC4(C)C)cs2)CC1` (stereo not shown) [Compound A38], for which the IC50 was 10 to 1000 nM. In the case of `CCn1nccc1CN1CCC(c2nc(-c3ccc4c(c3)C(C)(C)CCC4(C)C)cs2)CC1` [Compound B11] it was 1000 to 10000 nM; in that of `CC1(C)CCC(C)(C)c2cc(-c3csc(C4CCN(C(=O)C5CNCCO5)CC4)n3)ccc21` (stereo not shown) [Compound A65], 10 to 1000 nM; in that of `CC1(C)CCC(C)(C)c2cc(-c3csc(C4CCN(C(=O)[C@H](N)CO)CC4)n3)ccc21` [Compound A70], 1000 to 10000 nM. In the case of `Cn1cnc(CN2CCC(c3nc(-c4ccc5c(c4)C(C)(C)CCC5(C)C)cs3)CC2)c1` [Compound A71] it was 1000 to 10000 nM; in that of `CC1(C)CCC(C)(C)c2cc(-c3csc(C4CCN(CCCN5CCOCC5)CC4)n3)ccc21` [Compound B1], 1000 to 10000 nM. For `OCCN1CCC(c2nc(-c3ccc4c(c3)CCCC4)cs2)CC1` [Compound A11] the value was 1000 to 10000 nM; for `CC1(C)CCC(C)(C)c2cc(-c3csc(C4CCN(Cc5c[nH]cn5)CC4)n3)ccc21` [Compound A75], 10 to 1000 nM; for `Cn1ccnc1CN1CCC(c2nc(-c3ccc4c(c3)C(C)(C)CCC4(C)C)cs2)CC1` [Compound A73], 10 to 1000 nM. In turn, `CC1(C)CCC(C)(C)c2cc(-c3csc(C4CCN(CCCCN5CCOCC5)CC4)n3)ccc21` [Compound A30] yielded an IC50 of 10 to 1000 nM. In the case of `OC[C@@H](O)CN1CCC(c2nc(-c3ccc4c(c3)CCCC4)cs2)CC1` [Compound A14] it was 1000 to 10000 nM. For `CN(C)n1cccc1CN1CCC(c2nc(-c3ccc4c(c3)C(C)(C)CCC4(C)C)cs2)CC1` [Compound B14] the value was 1000 to 10000 nM; for `CC1(C)CCC(C)(C)c2cc(-c3csc(C4CCN(C(=O)OCC5CNCCO5)CC4)n3)ccc21` (stereo not shown) [Compound B16], 1000 to 10000 nM.

On to `CC1(C)CCCc2ccc(-c3csc(C4CCNCC4)n3)cc21` [Compound C3], for which the IC50 was 10 to 1000 nM. For `CN1CCCC1CCN1CCC(c2nc(-c3ccc4c(c3)C(C)(C)CCC4(C)C)cs2)CC1` (stereo not shown) [Compound A5] the value was 1000 to 10000 nM. In the case of `CC1(C)CCC(C)(C)c2cc(-c3csc(C4CCN(Cc5ccc(CO)o5)CC4)n3)ccc21` [Compound B9] it was 1000 to 10000 nM; in that of `CC1(C)CCC(C)(C)c2cc(-c3csc(C4CCN(S(C)(=O)=O)CC4)n3)ccc21` [Compound A83], over 10000 nM. For `CCN1CCC(c2nc(-c3ccc4c(c3)C(C)(C)CCC4(C)C)cs2)CC1` [Compound A34] the value was 10 to 1000 nM; for `CN(C)CC(=O)N1CCC(c2nc(-c3ccc4c(c3)C(C)(C)CCC4(C)C)cs2)CC1` [Compound A55], over 10000 nM.

`CC(CO)(CO)C(=O)N1CCC(c2nc(-c3ccc4c(c3)C(C)(C)CCC4(C)C)cs2)CC1` [Compound A57]: the IC50 is 1000 to 10000 nM. In the case of `OCCCN1CCC(c2nc(-c3ccc4c(c3)CCCC4)cs2)CC1` [Compound A13] it was 1000 to 10000 nM; in that of `CC1(C)CCC(C)(C)c2cc(-c3csc(C4CCN(C(=O)NCC(N)=O)CC4)n3)ccc21` [Compound A44], over 10000 nM; in that of `CC1(C)CCC(C)(C)c2cc(-c3csc(C4CCN(CCCN5CCCCC5)CC4)n3)ccc21` [Compound A28], 10 to 1000 nM.

As for `Cc1noc(C)c1CN1CCC(c2nc(-c3ccc4c(c3)C(C)(C)CCC4(C)C)cs2)CC1` [Compound B12], the IC50 lay within 1000 to 10000 nM. `COc1ccccc1N1CCN(CCN2CCC(c3nc(-c4ccc5c(c4)C(C)(C)CCC5(C)C)cs3)CC2)CC1` [Compound A35] came in with an IC50 of over 10000 nM.

The IC50 is the concentration that inhibits the measured activity by half.

The record behind these values is US8436186B2, “Thiazolyl piperidine derivatives” (Merck Patent Gesellschaft mit beschrankter Haftung, priority 2008, dated 2013).
